Laboratory results reported in patent publication US20250043299A1, “POINT MUTATIONS THAT BOOST AROMATIC AMINO ACID PRODUCTION AND CO2 ASSIMILATION IN PLANTS” (Wisconsin Alumni Research Foundation, priority 2021, published 2025).
Like-named read-outs stand apart in the source and are kept apart here.

Experiments:
[1] = test system: Nicotiana benthamiana leaves; experiment: Transient expression of Arabidopsis DHS1 WT and B4 in Nicotiana benthamiana, AAA levels by LC-MS; format: in vivo; settings: two days after inoculation
Description: Vectors for plant expression were made as previously described using MoClo modular cloning technology. For transient expression in Nicotiana benthamiana, gene expression of the protein coding sequence (CDS) of DHS1 WT and B4 were driven by a 1987-bp sequence obtained from the upstream region of the ubiquitin 10 gene (At4g05320) from Arabidopsis. In addition, a synthetic hemagglutinin (HA) tag comprising 6 repeats of the sequence […] (SEQ ID NO:75) was added to the C-terminus of the protein for quantification of protein expression using an anti-HA antibody. Vectors containing the promoter, CDS, epitope HA-tag, and a terminator were transformed into Agrobacterium tumefaciens via electroporation.
Positive transformants were used to perform transient expression in Nicotiana benthamiana. Single colony bacteria were grown in LB media supplemented with kanamycin (100 mg/L) and gentamycin (100 mg/L) at 28° C. with constant agitation at 200 rpm. […] After complete resuspension, bacteria concentration was evaluated by spectrometry using optical density (OD) at 600 nm. […]
Each inoculated leaf was separated into 4 quadrants, and each quadrant received a different bacteria solution containing a different vector. […] Samples for metabolite analysis were collected two days after inoculation and processed as previously described for quantification of aromatic amino acids.

plant DHSs = settings: prior reports (9); cited from earlier work
[2] = test system: Arabidopsis Col-0 WT plants; experiment: Plant growth on media containing ILA or IPA (feeding); format: in vivo, Arabidopsis thaliana; settings: IPA <10 μM; ILA 0-1000 μM in media
Source text: (A) A structural model of A. thaliana DHS2 (AtDHS2, purple) generated from the P. aeruginosa DHS (PaDHS, white) with Trp (magenta) bound. Residues corresponding to the sota mutations mapped onto the AtDHS2 model are highlighted in yellow. (B) Selected regions of the amino acid sequence alignment of PaDHS and AtDHS enzymes, with the positions of the sota mutations indicated by blue, red, green arrows for AtDHS1, AtDHS2, and AtDHS3, respectively. […] Data are means±SEM (n=3). (D) Screening of AAAs and AAA-derived metabolites as potential inhibitors of DHS1^WT and DHS2^WT. *P≤0.05, **P≤0.01, ***P≤0.001, and ****P≤0.0001 denote significant differences by one-way ANOVA with Dunnett's test against the corresponding “No effector” samples. Data are means±SEM (n=3). The dotted horizontal lines separate four sets of independent experiments. […] Data are means±SEM (n=3). (G) Plant picture (left) and fresh weight measurement (right) of 3-week-old Col-0, sotaB4, and sotaA4 mutants (Col-0 background) on the media containing ILA at 0, 250, 500, or 1000 μM. *P≤0.05 and **P≤0.01 denote significant differences by one-way ANOVA with Dunnett's test against the corresponding Col-0 samples (n=12 to 16 independent plant samples). […]

[3] = target: T1, Arabidopsis thaliana DHS1 (SEQ ID NO:1) variant DHS1^B4 (sotaB4), G244R (Arabidopsis thaliana, UniProt P29976, G244R); experiment: DHS enzyme assay with effector, DHS1 sotaB4; format: biochemical
T1 construct: without the predicted plastid transit peptide (amino acid residues; 49-525, 34-507, and 52-527, respectively); made in house; host or cells: E. coli
T1 sequence (P29976 49-525 G244R): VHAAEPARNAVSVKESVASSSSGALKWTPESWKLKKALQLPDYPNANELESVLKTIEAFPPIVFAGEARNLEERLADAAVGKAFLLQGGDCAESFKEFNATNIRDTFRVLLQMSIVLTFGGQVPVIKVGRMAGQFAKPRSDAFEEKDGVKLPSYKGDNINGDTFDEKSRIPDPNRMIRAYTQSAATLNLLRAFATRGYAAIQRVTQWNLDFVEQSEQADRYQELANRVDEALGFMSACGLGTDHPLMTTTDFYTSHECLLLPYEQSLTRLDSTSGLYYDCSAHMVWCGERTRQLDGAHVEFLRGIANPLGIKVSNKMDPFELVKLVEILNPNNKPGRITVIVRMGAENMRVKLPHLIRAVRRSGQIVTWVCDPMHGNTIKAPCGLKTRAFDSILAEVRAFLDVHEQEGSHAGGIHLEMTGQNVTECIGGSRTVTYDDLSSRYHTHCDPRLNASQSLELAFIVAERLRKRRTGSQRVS
Description: (§1) To generate recombinant DHS proteins the pET28a vectors carrying the A. thaliana DHS1 (AtDHS1), AtDHS2, or AtDHS3 WT sequence without the predicted plastid transit peptide (amino acid residues; 49-525, 34-507, and 52-527, respectively) were expressed in E. coli Rosetta-2 cells and purified using Ni-affinity chromatography, exactly as was conducted previously (9). To generate DHS proteins with individual sota mutations via site-directed mutagenesis, these pET28a plasmid templates were diluted by 500-fold, mixed with 0.04 U/μL Phusion DNA polymerase (Thermo Scientific), 0.2 mM deoxynucleoside triphosphates (dNTPs), 1× Phusion reaction buffer (Thermo Scientific), and 0.5 μM forward and reverse mutagenesis primers (Table 10). The PCR reaction was run using the following protocol: 98° C. for 30 s followed by 20 cycles of 10 s at 98° C., 20 s at 70° C., 4.5 min at 72° C. with a final extension at 72° C. for 10 min. The PCR products were purified using a QIAquick Gel Extraction Kit (QIAGEN), treated with FastDigest DpnI (Thermo Scientific) to digest methylated plasmid template DNA for 20 min at 37° C., and transformed into E. coli cells. The mutagenized pET28a plasmids were sequenced to confirm that no errors were introduced during the mutagenesis process.
(§2) The DHS enzyme assays were conducted using the colorimetric method that we recently described (9). Briefly, the enzyme solution (7.7 μl) containing 50 mM Hepes (pH 7.4) was preincubated with an effector molecule(s) at room temperature for 15 min. For assays using recombinant protein and enzyme fractions isolated from plant leaves, 0.01 to 0.1 μg and approximately 50 μg of proteins were used, respectively. After adding 0.5 μl of 0.1 M dithiothreitol, the samples were further incubated at room temperature for 15 min. During these incubations, the substrate solution containing 50 mM Hepes (pH 7.4), 2 mM MnCl2, 4 mM E4P, and 4 mM PEP at final concentration was preheated at 37° C. The enzyme reaction was started by adding 6.8 μl of the substrate solution, then incubated at 37° C. for 30 min, and terminated by adding 30 μl of 0.6 M trichloroacetic acid. After a brief centrifugation, 5 μl of 200 mM NaIO4 (sodium meta-periodate) in 9 N H3PO4 was added to oxidize the enzymatic product and to incubate at 25° C. for 20 min. To stop the oxidation reaction, 20 μl of 0.75 M NaAsO2 (sodium arsenite), which was dissolved in 0.5 M Na2SO4 and 0.05 M H2SO4, was added and immediately mixed. After 5 min of incubation at room temperature, one-third of the sample solution was transferred to a new tube to be mixed with 50 μl of 40 mM thiobarbituric acid and incubated at 99° C. for 15 min in a thermal cycler. The mixture was added to 600 μl of cyclohexanone in eight-strip solvent-resistant plastic tubes, mixed vigorously, and centrifuged at 4500 g for 3 min to separate water- and cyclohexanone-based layers for the extraction off the developed pink chromophore. The absorbance of the pink supernatant was read at 549 nm with the microplate reader (Infinite 200 PRO, TECAN) to calculate DAHP production with the molar extinction coefficient at 549 nm (ε=549 nm) of 4.5×10^4 M^−1 cm^−1. Reaction mixtures with boiled enzymes were run in parallel and used as negative controls to estimate the background signal.

DHS1^WT = target: T2, DHS1^WT (Arabidopsis thaliana, UniProt P29976); experiment: DHS enzyme assay (colorimetric), recombinant DHS1^WT; format: biochemical
T2 construct: without the predicted plastid transit peptide (amino acid residues; 49-525, 34-507, and 52-527, respectively); made in house; host or cells: E. coli Rosetta-2
T2 sequence (P29976 49-525): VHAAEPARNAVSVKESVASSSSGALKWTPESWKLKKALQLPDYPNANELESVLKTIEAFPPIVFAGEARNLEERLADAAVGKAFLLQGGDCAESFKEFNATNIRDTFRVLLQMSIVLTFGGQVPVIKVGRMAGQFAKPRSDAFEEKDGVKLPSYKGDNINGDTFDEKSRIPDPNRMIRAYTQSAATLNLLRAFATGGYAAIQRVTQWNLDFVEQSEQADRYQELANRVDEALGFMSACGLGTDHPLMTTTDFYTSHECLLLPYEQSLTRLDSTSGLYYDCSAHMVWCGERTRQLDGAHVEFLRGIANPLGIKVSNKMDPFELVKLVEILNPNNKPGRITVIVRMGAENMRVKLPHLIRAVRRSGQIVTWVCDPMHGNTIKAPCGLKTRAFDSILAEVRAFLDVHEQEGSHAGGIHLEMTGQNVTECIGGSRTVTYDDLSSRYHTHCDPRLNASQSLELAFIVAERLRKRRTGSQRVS
Description: as §1, §2

DHS2^WT = target: T3, DHS2^WT (Arabidopsis thaliana, UniProt Q00218); experiment: DHS enzyme assay, recombinant DHS2^WT; format: biochemical; settings: FIG. 2D
T3 construct: without the predicted plastid transit peptide (amino acid residues; 49-525, 34-507, and 52-527, respectively); made in house; host or cells: E. coli Rosetta-2
T3 sequence (Q00218 34-507): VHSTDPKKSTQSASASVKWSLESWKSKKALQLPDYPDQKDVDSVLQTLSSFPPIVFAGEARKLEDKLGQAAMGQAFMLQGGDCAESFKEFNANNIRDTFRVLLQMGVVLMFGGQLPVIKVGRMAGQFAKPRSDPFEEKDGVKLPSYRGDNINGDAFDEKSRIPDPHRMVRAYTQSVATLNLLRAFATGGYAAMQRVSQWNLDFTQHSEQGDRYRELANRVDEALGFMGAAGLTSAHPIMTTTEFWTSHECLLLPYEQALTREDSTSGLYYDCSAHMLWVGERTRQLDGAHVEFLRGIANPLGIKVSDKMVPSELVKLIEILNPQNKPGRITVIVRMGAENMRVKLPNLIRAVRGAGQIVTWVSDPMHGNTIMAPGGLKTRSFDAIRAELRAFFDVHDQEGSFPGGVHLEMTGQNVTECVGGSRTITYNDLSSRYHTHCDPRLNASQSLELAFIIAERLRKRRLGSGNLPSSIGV
Description: as §1, §2

[4] = test system: Arabidopsis thaliana DHS^WT isoforms (DHS1, DHS2, DHS3), SEQ ID NO:1-3; settings: reference 9; cited from earlier work
[5] = target: T4, Arabidopsis thaliana DHS2 (AtDHS2), wild type (DHS2^WT), SEQ ID NO:2 (Arabidopsis thaliana, UniProt Q00218); settings: DHS2^WT; values for AAAs, chorismate, caffeate from Yokoyama et al., Plant Cell, 2021; cited from earlier work
T4 construct: without the predicted plastid transit peptide (amino acid residues; 49-525, 34-507, and 52-527, respectively); made in house; host or cells: E. coli Rosetta-2
T4 sequence (Q00218 34-507): as above

[6] = target: T5, Arabidopsis thaliana DHS2 (SEQ ID NO:2) variant DHS2^A4 (sotaA4), G222S (Arabidopsis thaliana, UniProt Q00218, G222S); experiment: biochemical; format: biochemical
T5 construct: without the predicted plastid transit peptide (amino acid residues; 49-525, 34-507, and 52-527, respectively); made in house; host or cells: E. coli
T5 sequence (Q00218 34-507 G222S): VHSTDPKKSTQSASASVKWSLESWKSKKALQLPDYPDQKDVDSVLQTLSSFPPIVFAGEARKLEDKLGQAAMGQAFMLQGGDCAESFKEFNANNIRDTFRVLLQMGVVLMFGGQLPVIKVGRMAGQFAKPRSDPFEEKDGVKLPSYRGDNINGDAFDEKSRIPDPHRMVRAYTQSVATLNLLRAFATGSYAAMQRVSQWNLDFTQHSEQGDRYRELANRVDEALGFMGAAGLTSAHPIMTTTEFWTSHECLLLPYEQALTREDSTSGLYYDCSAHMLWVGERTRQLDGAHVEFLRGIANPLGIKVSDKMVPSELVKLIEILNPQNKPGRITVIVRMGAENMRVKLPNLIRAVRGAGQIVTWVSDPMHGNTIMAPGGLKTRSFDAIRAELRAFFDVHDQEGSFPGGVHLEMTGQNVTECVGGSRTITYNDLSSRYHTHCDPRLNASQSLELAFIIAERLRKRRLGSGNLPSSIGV
Description: as §1, §2

[7] = target: T6, Arabidopsis thaliana DHS1 (AtDHS1), wild type (DHS1^WT), SEQ ID NO:1 (Arabidopsis thaliana, UniProt P29976); settings: values for AAAs, chorismate, caffeate from Yokoyama et al., Plant Cell, 2021; cited from earlier work
T6 construct: without the predicted plastid transit peptide (amino acid residues; 49-525, 34-507, and 52-527, respectively); made in house; host or cells: E. coli Rosetta-2
T6 sequence (P29976 49-525): as the sequence (P29976 49-525) above

DHS1^B4 = target: T7, DHS1^B4 (Arabidopsis thaliana, UniProt P29976, G244R); experiment: DHS enzyme assay, recombinant DHS1^B4; format: biochemical
T7 construct: without the predicted plastid transit peptide (amino acid residues; 49-525, 34-507, and 52-527, respectively); made in house; host or cells: E. coli
T7 sequence (P29976 49-525 G244R): as the sequence (P29976 49-525 G244R) above
Description: as §1, §2

DHS2^A4 = target: T8, DHS2^A4 (Arabidopsis thaliana, UniProt Q00218, G222S); format: biochemical
T8 construct: without the predicted plastid transit peptide (amino acid residues; 49-525, 34-507, and 52-527, respectively); made in house; host or cells: E. coli
T8 sequence (Q00218 34-507 G222S): as the sequence (Q00218 34-507 G222S) above
Description: as §1, §2

Arabidopsis DHS1 sotaB4 mutant: Arabidopsis DHS1 enzyme with the sotaB4 mutation (G244R)
production of tyrosine and phenylalanine in the tobacco plant [1]: significantly elevated production

O=C[C@H](O)[C@H](O)COP(=O)(O)O [E4P, erythrose-4-phosphate]
Km for E4P (plant DHSs): high

O=C(O)C(O)Cc1c[nH]c2ccccc12 (stereo not drawn) [ILA, Indole-3-lactate]
effect of feeding on plant growth [2]: growth inhibition | IC50 ([3]; DHS1^B4, 4 mM E4P, 4 mM PEP, pH 7.4, 37° C.): 2.88 mM | effect on DHS1 activity (effector screening) (DHS1^WT; FIG. 2D): reduced the activity | IC50 (DHS1^WT; recombinant enzyme, read-out: IC50 of effector molecule on DHS1^WT): 210 µM | effect on DHS2 activity (effector screening) (DHS2^WT): reduced the activity

C=C(O[C@@H]1C=C(C(=O)O)C=C[C@H]1O)C(=O)O [Chorismate]
inhibition of all Arabidopsis DHS isoforms [4]: strongly inhibit all Arabidopsis DHS isoforms | IC50 [5]: 81 µM | IC50 [6]: 101 µM | inhibition of DHS2^A4 ([6]; up to 1 mM Tyr, Trp (FIG. 2C), shikimate, arogenate, prephenate at 1 mM (FIG. 21A)): still inhibited | IC50 [7]: 14.6 µM | inhibition of DHS1^B4 activity (DHS1^B4): still strongly inhibited | IC50 (DHS1^B4; recombinant enzyme, read-out: IC50 of effector molecule on DHS1^B4): 25.3 µM | IC50 [3]: 0.0253 mM | inhibition of DHS1^B4 ([3]; FIG. 19): still strongly inhibited | inhibition of DHS2^A4 activity (DHS2^A4; effector up to 1 mM): still inhibited | IC50 (DHS2^A4; recombinant enzyme, read-out: IC50 of effector molecule on DHS2^A4): 102 µM
